Results as given in patent US20230121313A1 (priority 2019, published 2023).
Values joined by “and” are separate entries in the source; they are usually repeats but may differ in a detail not shown here. Equal values may be shown once. “Also recorded” adds a separate entry of the source. Where a name gives a salt, the structure may show the parent alone. Marks after values point to notes of the source that are not given here.

Key:
[1] = system: female Sprague-Dawley rats; assay: 14-day repeated dose neurotoxicity study, intranasal esketamine HCl (clinical observations, brain histopathology, toxicokinetics); conditions: for Abnormal respiration, incidence / Ataxia, incidence / Chromodacryorrhea, incidence / Decreased general activity, incidence / Decubitus, incidence / Increased general activity, incidence / Salivation (out of normal), incidence / audible respiration, incidence / bradypnoea, incidence: 14 days
Text: (§1) For these studies, female specific pathogen free (SPF) Sprague-Dawley rats were used, which were approximately 12 to 14 weeks at start of dosing and weighed between 227 to 293 grams in the single dose study and between 235 to 296 grams in the 14-day repeated dose study. The rats were supplied by Charles River (Sulzfeld, Germany). They were group housed in polysulphone cages with floor area of 3000 cm^2 and Corn Cob (size 12, Eurocob, France) was provided as bedding material. Environmental enrichment existed of a rodent retreat (Bio-Serv, US) and aspen wood blocks (Datesand, UK). […] The animals were fed ad libitum with irradiated R/M-H pelleted maintenance diet from Ssniff (Germany). Hydrogel™ (supplied by Bio-services, Uden, the Netherlands) was provided to the MK-801 dosed rats in the single dose study.
Esketamine HCl was administered into each nostril of female rats at a volume of 50 μl per nostril either once, twice or thrice daily by intranasal instillation for 14 consecutive days at doses of 0 (vehicle), 18, 36 or 54 mg/day. At each instillation, the second nostril was dosed immediately after the first nostril. The interval between subsequent instillations into both nostrils was 5 minutes when dosed 2 or 3 times per day.
The vehicle control group received 3 subsequent intranasal instillations of the vehicle into both nostrils (50 μL per nostril) with 5-minute intervals for 14 consecutive days.
The positive control group received a single subcutaneous injection of (+)MK-801 at 48 hours prior to the necropsy of the vehicle control and esketamine HCl-treated animals.
Each group of main study animals consisted of 12 female rats. Four satellite animals were added to the esketamine HCl-dosed groups of main study animals for TK purposes. The plasma exposure to esketamine was measured in these animals on the first and the last day of dosing at various time points up to and including 24 hours after the first instillation.
Due to logistic constraints associated with the whole body perfusion procedure of the animals at necropsy, a staggered start was applied to the study. Consequently, all 5 groups of main study animals were divided into three subgroups of 4 animals each. For each of these subgroups treatment started on a different day. The perfusion procedure is the is the same as described for the single dose study.
All vehicle- and esketamine HCl-treated animals were sacrificed at 48 hours after the last instillation. […] The brain tissue of the vehicle control-, positive control- and esketamine HCl-treated rats were processed at the same time and handled in the same way in batches of 4 animals per group.
(§2) Furthermore, clinical observations were recorded for the esketamine HCl-dosed rats on the day of dosing at 0 till 5 minutes, 15 and 30 minutes, and at 1, 2, 4, 6 hours post-dose, at the end of the working day and at 24 hours after the last instillation in the single dose study and on the first day of dosing, after one week and towards the end of the dosing period in the repeated dose study. Body weight and body weight gain were measured daily. Food consumption was measured weekly in the repeated dose study.
On the day of terminal kill, a complete physical examination was performed on the rats in fasted condition and body weight was recorded. The surviving animals were anaesthetized by inhalation of an isoflurane (IsoFlo® Zoetis, Belgium)/oxygen mixture and killed by exsanguination via the carotid artery. […] All terminally killed rats or those killed pre-terminally were perfused with 4% paraformaldehyde in the single dose study and with glutaraldehyde 3% in potassium phosphate buffer 0.09 M with 1.4% sucrose in the repeated dose study.
Brain tissue was sampled and processed routinely. The trimmed and embedded tissue was sectioned and stained with hematoxylin-eosin (HE).

[2] = system: female Sprague-Dawley rats; assay: Single dose neurotoxicity study, intranasal esketamine HCl (clinical observations, brain histopathology, toxicokinetics)
Text: as §1
Esketamine HCl was instilled intranasally at doses of 0 (vehicle), 36, 54 or 72 mg (expressed as esketamine base) to female rats on a single day. The dose levels were obtained by 2, 3 or 4 subsequent intranasal instillations, respectively, into both nostrils at a volume of 50 μL per nostril. At each instillation, the second nostril was dosed immediately after the first nostril. The interval between subsequent instillations into both nostrils was 5 minutes.
The vehicle control group received 4 subsequent intranasal instillations of the vehicle into both nostrils (50 μL per nostril) with 5-minute intervals.
The injection volume was 5 mL/kg.
The vehicle- and the 36 and 54 mg-dosed groups consisted of 24 animals per group, while the 72 mg-dosed and positive control groups involved 30 animals per group. Four satellite animals were added to the esketamine HCl-dosed groups of main study animals for toxicokinetic (TK) purposes. In these animals the plasma exposure to esketamine was measured on the day of dosing at various time points up to and including 24 hours after the first instillation.
Prior to the perfusion, rats were anesthetized with isoflurane. After injection of 0.1 ml heparin, the blood of the rat was flushed out with a physiological saline solution by intraarterial insertion of a needle in the abdominal aorta. Thereafter the rat was perfused with glutaraldehyde 3% in potassium phosphate 0.09M and 1.4% sucrose. Due to logistic constraints at maximum 30 animals could undergo the whole-body perfusion procedure on a given day. Therefore, a staggered start of treatment was applied to all 5 groups of main study animals. Consequently, subgroups of 4 main study animals of the vehicle- and 36 and 54 mg-dosed groups, and 5 main study animals of the 72 mg-dosed and positive control groups, were dosed on 6 consecutive days, respectively.
The vehicle control, positive control, and esketamine HCl-dosed animals were sacrificed at either 48 hours (i.e., the first 12 or 15 rats per group) or 96 hours after the dose administration time (i.e., the last 12 or 15 rats per group). The brain tissue of the vehicle control-, positive control- and esketamine HCl-treated rats were processed at the same time and handled in the same way in batches of 4 or 5 animals per group.
as §2
On the day of terminal kill, a complete physical examination was performed on the rats in fasted condition and body weight was recorded. The surviving animals were anaesthetized by inhalation of an isoflurane (IsoFlo® Zoetis, Belgium)/oxygen mixture and killed by exsanguination via the carotid artery.

adult subjects with TRD [3] = conditions: human, in vivo, other: intranasal
Protocol: The CADSS is an instrument for the measurement of present-state dissociative symptoms, and was administered to assess treatment-emergent dissociative symptoms. The CADSS consists of 23 subjective items, divided into 3 components: Depersonalization (Items 3 to 7, 20, and 23), derealization (Items 1, 2, 8 to 13, 16 to 19, and 21) and amnesia (Items 14, 15, and 22). Participant's responses were coded on a 5-point scale (0=not at all through to 4=extremely).
The Clinician Administered Dissociative States Scale (CADSS) was measured prior to the start of each dose, at 40 minutes, and 1.5 hours postdose.

adult subjects with TRD [4] = conditions: human, in vivo, other: intranasal; remark: listed apart in the source
Protocol: The MOAA/S was used to measure treatment-emergent sedation, with correlation to levels of sedation defined by the American Society of Anesthesiologists (ASA) continuum. The MOAA/S scores range from 0=no response to painful stimulus (corresponds to ASA continuum for general anesthesia) to 5=readily responds to name spoken in normal tone (awake; corresponds to ASA continuum for minimal sedation).
On each intranasal dosing day, the MOAA/S was performed every 15 minutes from pre-dose to t=+1.5 hours post-dose. If the score was ≤3 at any time during the 1.5 hours post-dose interval, the MOAA/S was performed every 5 minutes until a score of 4 is reached (at which point a frequency of every 15 minutes can be resumed until t=+1.5 hours post dose). […] For subjects with a score of 4, the assessment was repeated every 15 minutes. […]
The Modified Observer's Assessment of Alertness/Sedation (MOAA/S) was used to measure treatment-emergent sedation with correlation to levels of sedation defined by the American Society of Anesthesiologists (ASA) continuum. The MOAA/S scores ranged from 0 (No response to painful stimulus; corresponds to ASA continuum for general anesthesia) to 5 (Readily responds to name spoken in normal tone [awake]; corresponding to ASA continuum for minimal sedation).

[5] = 14-day neurotoxicity study, 54 mg/day
[6] = single dose neurotoxicity study, 72 mg

## CN[C@]1(c2ccccc2Cl)CCCCC1=O [esketamine HCl, (S)-2-(2-chlorophenyl)-2-(methylamino)cyclohexanone hydrochloride]
[1]; 18 mg/day intranasal
  Abnormal respiration, incidence: 2/12
  Ataxia, incidence: 12/12***
  Chromodacryorrhea, incidence: 0/12
  Decreased general activity, incidence: 5/12
  Decubitus, incidence: 0/12
  Increased general activity, incidence: 12/12***
  Salivation (out of normal), incidence: 12/12***
  audible respiration, incidence: 2/12
  bradypnoea, incidence: 0/12
[1]; 36 mg/day intranasal
  Abnormal respiration, incidence: 11/12***
  Ataxia, incidence: 12/12***
  Chromodacryorrhea, incidence: 0/12
  Decreased general activity, incidence: 12/12***
  Decubitus, incidence: 2/12
  Increased general activity, incidence: 12/12***
  Salivation (out of normal), incidence: 12/12***
  audible respiration, incidence: 6/12**
  bradypnoea, incidence: 11/12***
[1]; 54 mg/day intranasal
  Abnormal respiration, incidence: 12/12***
  Ataxia, incidence: 12/12***
  Chromodacryorrhea, incidence: 0/12
  Decreased general activity, incidence: 12/12***
  Decubitus, incidence: 8/12***
  Increased general activity, incidence: 12/12***
  Salivation (out of normal), incidence: 12/12***
  audible respiration, incidence: 6/12**
  bradypnoea, incidence: 12/12***
[1]; 14-day dose-range finding study (internal study)
  Maximum tolerated dose (MTD) upon repeated intranasal administration: 54 mg/day
[1]; 14-day study, esketamine HCl intranasal up to 54 mg/day, (+)MK-801 maleate single 1 mg/kg sc, 48 h after last dose, hydrochloride, 1 mg/kg
  Brain histopathology (neuronal necrosis / Olney lesions in PCG/RSC): absence of neuronal necrosis; also recorded: no histopathological lesions were noted; also recorded: did not; also recorded: No histopathological lesions were found
[1]; up to 54 mg/day for 14 days
  Mortality: No test article related mortality occurred
[2]; 36 mg
  Duration of severely decreased activity with decubitus, bradypnea, ptosis, catalepsy (anesthesia) after last instillation: 15 to 30 min
[2]; 54 mg, hydrochloride
  Duration of ataxia (with increased activity) after recovery from decreased activity: 1.5 to 3 h and 1 to 3 h
[2]; 72 mg
  Duration of ataxia (with increased activity) after recovery from decreased activity: up to 3 hours or longer
[2]; single dose 36 mg intranasal
  Abnormal respiration, incidence: 22/24***
  Ataxia, incidence: 24/24***
  Catalepsy, incidence: 20/24***
  Chromodacryorrhea, incidence: 0/24
  Decreased general activity, incidence: 23/24***
  Decubitus, incidence: 23/24***
  Increased general activity, incidence: 24/24***
  Narrowed palpebral fissure, incidence: 7/24**
  Piloerection, incidence: 0/24
  Salivation (out of normal), incidence: 23/24***
  audible respiration, incidence: 10/24***
  bradypnoea, incidence: 22/24***
[2]; single dose 54 mg intranasal
  Abnormal respiration, incidence: 22/24***
  Ataxia, incidence: 24/24***
  Catalepsy, incidence: 23/24***
  Chromodacryorrhea, incidence: 0/24
  Decreased general activity, incidence: 23/24***
  Decubitus, incidence: 23/24***
  Increased general activity, incidence: 24/24***
  Narrowed palpebral fissure, incidence: 10/24***
  Piloerection, incidence: 0/24
  Salivation (out of normal), incidence: 24/24***
  audible respiration, incidence: 3/24
  bradypnoea, incidence: 21/24***
[2]; single dose 72 mg intranasal
  Abnormal respiration, incidence: 30/30***
  Catalepsy, incidence: 30/30***
  Chromodacryorrhea, incidence: 0/30
  Decreased general activity, incidence: 30/30***
  Decubitus, incidence: 30/30***
  Increased general activity, incidence: 29/30***
  Narrowed palpebral fissure, incidence: 22/30***
  Piloerection, incidence: 0/30
  Salivation (out of normal), incidence: 29/30***
  audible respiration, incidence: 2/30
  bradypnoea, incidence: 30/30***
[2]; single dose study, esketamine HCl intranasal up to 72 mg, (+)MK-801 maleate 1 mg/kg sc, 48 and 96 h post-dose, hydrochloride
  Brain histopathology (neuronal necrosis / Olney lesions in PCG/RSC): no morphological evidence of neuronal degeneration; also recorded: histopathological lesions were absent; also recorded: No signs of neuronal necrosis were found; also recorded: no neuropathological lesions were observed
[2]; single intranasal dose 72 mg, within 30 minutes after 4 instillations
  Mortality: two main study animals and two satellite TK animals died
[2]; single intranasal dose up to 54 mg
  Mortality: No test article related mortality

## CN[C@]1(c2ccccc2Cl)CCCCC1=O [esketamine, (S)-2-(2-chlorophenyl)-2-(methylamino)cyclohexanone]
Adult subjects with TRD [3]
  CADSS dissociative and perceptual change symptoms resolved by (postdose): ≤ 1.5 h
[1]; [5]
  AUC-based safety margin compared with the maximum 84 mg clinical dose: ~11 fold
  Cmax-based safety margin compared with the maximum 84 mg clinical dose: approximately 17 fold
Adult subjects with TRD [4]
  Sedation (MOAA/S) resolved by (postdose): ≤ 1.5 h
[2]; [6]
  AUC-based safety margin compared with the maximum 84 mg clinical dose: ~86 fold
  Cmax-based safety margin compared with the maximum 84 mg clinical dose: approximately 60 fold
